From PMC6386767, “Characterization of recombinant fructose-1,6-bisphosphatase gene mutations: evidence of inhibition/activation of FBPase protein by gene mutation” (Bioscience Reports, 2019)
Numbering of substitutions follows the chain as printed. pIC50, pKi: −log10 of the molar value.

How the values were obtained:
pig kidney FBPase Y113A = molecular target: T1, pig kidney FBPase Y113A (Sus scrofa, UniProt P00636, Y114A); assay: Differential scanning fluorimetry, Y113A mutant; format: binding; conditions: enzyme Y113A
T1 construct: His6 (C); made in house; host or cells: Escherichia coli BL21 (DE3)
T1 sequence (P00636 1-338 Y114A): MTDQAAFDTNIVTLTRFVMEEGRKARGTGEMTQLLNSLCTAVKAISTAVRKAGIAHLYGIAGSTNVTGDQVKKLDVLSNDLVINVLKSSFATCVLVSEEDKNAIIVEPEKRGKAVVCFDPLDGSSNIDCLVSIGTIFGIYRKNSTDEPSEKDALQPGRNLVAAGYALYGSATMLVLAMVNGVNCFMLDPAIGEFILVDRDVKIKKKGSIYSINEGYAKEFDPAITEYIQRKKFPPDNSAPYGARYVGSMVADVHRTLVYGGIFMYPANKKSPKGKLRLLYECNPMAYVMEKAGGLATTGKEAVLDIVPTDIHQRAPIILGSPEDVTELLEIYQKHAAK
Protocol: (§1) Differential scanning fluorimetry (DSF) assays were designed and implemented to run on WT and each mutant for the purpose of determining relative stabilities by melting point, and to detect structural changes in the enzymes upon ligand binding. Thermal shift assays were performed with a Light Cycler 96 System Real-Time PCR machine (Roche) using Sypro-Orange dye (Invitrogen) and thermal ramping (0.25°C per min between 20 and 85°C). […] Data were processed using the Boltzmann equation to generate sigmoidal denaturation curves, and average Tm/ΔTm values were calculated as previously described using GraphPad Prism software package.

pig kidney FBPase WT [1] = molecular target: T2, pig kidney FBPase WT (Sus scrofa, UniProt P00636); assay: Differential scanning fluorimetry, WT enzyme; format: binding; conditions: enzyme WT
T2 construct: His6 (C); made in house; host or cells: Escherichia coli BL21 (DE3)
T2 sequence (P00636 1-338): T1 sequence (P00636 1-338 Y114A) with A114Y
Protocol: as §1

pig kidney FBPase WT [2] = molecular target: T2, pig kidney FBPase WT; assay: Malachite Green kinetic assay, WT enzyme; format: biochemical; conditions: for pIC50: FBP substrate 10 to 50 µM
Protocol: (§2) For the kinetic assay, a standard curve was obtained from an ammonium molybdate Malachite Green inorganic phosphate assay (OD660 nm). The purified FBPase protein was dialyzed ×3 in 50 mM Tris buffer at pH 7.5 at 4°C. For enzyme concentration, absorbency values were recorded for all five mutant proteins using spectrophotometer readings at OD280 nm. To quantitate enzyme concentration, the enzymes were calculated based on the quantity of micrograms per microliter (µg/µl) present. Final concentration of WT and mutant enzymes was between 2.5 and 5.0 µg/µl. Using a colorimetric assay as described below, specific activity (SA) was determined. At last, all kinetic and binding assays described below were performed in 50 mM Tris pH 7.5.
(§3) Kinetic assays were performed for WT and mutant enzymes to identify functional differences between the WT enzyme and the mutants. […] Readings recorded at OD660 nm for each enzyme were applied to the standard curve equation. Micromoles of inorganic phosphate were calculated to determine the SA of mutant enzymes.
(§4) For each clone, the kinetic assay was performed in duplicates of triplicates. Malachite Geen was used to detect inorganic phosphate. Two separate clones were processed independently of the same mutant. All kinetic data were fit to symmetric sigmoidal curve using Origin software based on methods previously described [[27–29]]. More specifically, for kinetic parameters established via curve fitting (shown in Tables 1–3; and in Figure 5A,B), the equation y = d + (a − d)/1 + (x/c)^b was used where ‘x’ is represented by apparent Michelis constant (Km) when y = Vmax. […] P-values were significant at <0.001 and represent a comparison with the WT enzyme.

pig kidney FBPase L56A [3] = molecular target: T3, pig kidney FBPase L56A (Sus scrofa, UniProt P00636, L57A); assay: Differential scanning fluorimetry, L56A mutant; format: binding; conditions: enzyme L56A
T3 construct: His6 (C); made in house; host or cells: Escherichia coli BL21 (DE3)
T3 sequence (P00636 1-338 L57A): T1 sequence (P00636 1-338 Y114A) with L57A, A114Y
Protocol: as §1

pig kidney FBPase L73A [4] = molecular target: T4, pig kidney FBPase L73A (Sus scrofa, UniProt P00636, L74A); assay: Differential scanning fluorimetry, L73A mutant; format: binding; conditions: enzyme L73A
T4 construct: His6 (C); made in house; host or cells: Escherichia coli BL21 (DE3)
T4 sequence (P00636 1-338 L74A): T1 sequence (P00636 1-338 Y114A) with L74A, A114Y
Protocol: as §1

pig kidney FBPase L56A [5] = molecular target: T3, pig kidney FBPase L56A; assay: Malachite Green kinetic assay, L56A mutant; format: biochemical; conditions: enzyme L56A; for pIC50: FBP substrate 10 to 50 µM
Protocol: as §2, §3, §4

pig kidney FBPase L73A [6] = molecular target: T4, pig kidney FBPase L73A; assay: Malachite Green kinetic assay, L73A mutant; format: biochemical; conditions: enzyme L73A; for pIC50: FBP substrate 10 to 50 µM
Protocol: as §2, §3, §4

[7] = association (binding) constant from saturation curve

Nc1ncnc2c1ncn2[C@@H]1O[C@H](COP(=O)(O)O)[C@@H](O)[C@H]1O [AMP]
reduction in melting temperature, presence of AMP vs absence of ligand (pig kidney FBPase Y113A): 5–9 °
melting point of enzyme with AMP (100 µM) (pig kidney FBPase Y113A; AMP 100 µM): 45.0 (± 1.25) °C
melting point of enzyme with AMP (100 µM) (pig kidney FBPase WT [1]; AMP 100 µM): 59.0 (± 1.75) °C
AMP Hill coefficient (pig kidney FBPase WT [2]): 2.2 (± 0.1)
pIC50 (pig kidney FBPase WT [2]): 5.12
melting point of enzyme with AMP (100 µM) (pig kidney FBPase L56A [3]; AMP 100 µM): 57.0 (± 2.75) °C
melting point of enzyme with AMP (100 µM) (pig kidney FBPase L73A [4]; AMP 100 µM): 56.0 (± 3.00) °C
AMP Hill coefficient (pig kidney FBPase L56A [5]): 2.3 (± 0.2)
pIC50 (pig kidney FBPase L56A [5]): 5.13
AMP Hill coefficient (pig kidney FBPase L73A [6]): 2.1 (± 0.2)
pIC50 (pig kidney FBPase L73A [6]): 5.16

O=P(O)(O)OC[C@H]1O[C@@](CO)(OP(=O)(O)O)[C@@H](O)[C@@H]1O [F2,6-BP, fructose-2,6-bisphosphate]
pKi (pig kidney FBPase WT [2]): 6.60
pIC50 (pig kidney FBPase WT [2]): 5.82
pKi (pig kidney FBPase L56A [5]): 5.90
pIC50 (pig kidney FBPase L56A [5]): 5.12
pKi (pig kidney FBPase L73A [6]): 5.87
pIC50 (pig kidney FBPase L73A [6]): 5.14

[Mg+2] [Mg^2+, magnesium]
melting point of enzyme with Mg^2+ ([…]) (pig kidney FBPase Y113A; Mg^2+ […]): 52.0 (± 1.50) °C
melting point of enzyme with Mg^2+ ([…]) (pig kidney FBPase WT [1]; Mg^2+ […]): 50.0 (± 1.25) °C
Ka (pig kidney FBPase WT [2]; [7]): 0.50 (± 0.18) mM
Hill coefficient (pig kidney FBPase WT [2]; for magnesium): 2.10 (± 0.15)
melting point of enzyme with Mg^2+ ([…]) (pig kidney FBPase L56A [3]; Mg^2+ […]): 56.0 (± 2.50) °C
melting point of enzyme with Mg^2+ ([…]) (pig kidney FBPase L73A [4]; Mg^2+ […]): 56.5 (±2.25) °C
Ka (pig kidney FBPase L56A [5]; [7]): 0.52(± 0.13) mM
Hill coefficient (pig kidney FBPase L56A [5]; for magnesium): 2.75 (± 0.16)
Ka (pig kidney FBPase L73A [6]; [7]): 0.48 (± 0.17) mM
Hill coefficient (pig kidney FBPase L73A [6]; for magnesium): 2.95 (± 0.17)
